Measured values taken from ChEMBL document CHEMBL5579829, “Discovery of a potent CDKs/FLT3 PROTAC with enhanced differentiation and proliferation inhibition for AML” (Eur J Med Chem, 2024).
Calls of active or inactive are those of the source. The calls are words filed in the database; no cut-off is given here.

How the values were obtained:
HL-60 [1] = assay: Induction of pro-differentiation of human HL-60 cells assessed as increase in CD11b expression at 6.25 nM measured after 3 days by immunostaining-based flow cytometry relative to 500 nM CPS2; assay type: functional; conditions: time 3 day
[2] = molecular target: T1, Protein cereblon/Cyclin-dependent kinase 2 (Homo sapiens, UniProt P24941+Q96SW2); assay: Protac activity at CRBN/CDK2 in human HL-60 cells assessed as induction of CDK2 degradation measured after 24 hrs by Western blot analysis; assay type: cell-based
HL-60 [3] = assay: Induction of pro-differentiation of human HL-60 cells assessed as CD11b expression at 2 nM measured after 3 days by immunostaining-based flow cytometry (reference value: 8.32 to 10.55%); assay type: functional; conditions: time 3 day
[4] = molecular target: T1, Protein cereblon/Cyclin-dependent kinase 2; assay: Protac activity at CRBN/CDK2 in human HL-60 cells assessed as induction of CDK2 degradation at 10 nM measured at 12 hrs by Western blot analysis; assay type: cell-based
HL-60 [5] = assay: Induction of pro-differentiation of human HL-60 cells assessed as increase in CD11b expression at 6.25 nM measured after 3 days by immunostaining-based flow cytometry relative to control; assay type: functional; conditions: time 3 day
[6] = molecular target: T2, Protein cereblon/Cyclin-dependent kinase 6 (Homo sapiens, UniProt Q00534+Q96SW2); assay: Protac activity at CRBN/CDK6 in human THP-1 cells assessed as induction of CDK6 degradation at 4 to 64 nM measured after 3 days by Western blot analysis; assay type: cell-based; conditions: dose 4-64 nM, time 3.0 day
[7] = molecular target: T3, Protein cereblon/Cyclin-dependent kinase 4 (Homo sapiens, UniProt P11802+Q96SW2); assay: Protac activity at CRBN/CDK4 in human MV4-11 cells assessed as induction of CDK4 degradation at 2 to 32 nM measured after 3 days by Western blot analysis; assay type: cell-based; conditions: dose 2-32 nM, time 3.0 day
[8] = molecular target: T1, Protein cereblon/Cyclin-dependent kinase 2; assay: Protac activity at CRBN/CDK2 in human HL-60 cells assessed as induction of CDK2 degradation by Western blot analysis; assay type: cell-based
MOLM-13 = assay: Antiproliferative activity against human MOLM-13 cells measured after 1 to 3 days by CCK-8 assay; assay type: functional, cell-based
HL-60 [9] = assay: Induction of pro-differentiation of human HL-60 cells assessed as CD11b expression at 1 nM measured after 3 days by immunostaining-based flow cytometry (reference value: 8.32 to 10.55%); assay type: functional; conditions: time 3 day
[10] = molecular target: T4, Protein cereblon/Cyclin-dependent kinase 5 (Homo sapiens) (UniProt Q00535+Q96SW2); assay: Protac activity at CRBN/CDK5 in human HL-60 cells assessed as induction of CDK5 degradation at 4 to 64 nM measured after 3 days by Western blot analysis; assay type: cell-based; conditions: dose 4-64 nM, time 3.0 day
[11] = tested on: Protein cereblon/Receptor-type tyrosine-protein kinase FLT3 (Homo sapiens), P36888+Q96SW2 [UNDEFINED MUTATION]; assay: Protac activity at CRBN/FLT3-ITD mutant in human Kasumi 1 cells assessed as induction of FLT3 degradation at 2 to 32 nM measured after 3 days by Western blot analysis; assay type: cell-based; conditions: dose 2-32 nM, time 3.0 day
[12] = tested on: Protein cereblon/Receptor-type tyrosine-protein kinase FLT3 (Homo sapiens), P36888+Q96SW2 [UNDEFINED MUTATION]; assay: Protac activity at CRBN/FLT3-ITD mutant in human MV4-11 cells assessed as induction of FLT3 degradation at 2 nM measured after 3 days by Western blot analysis relative to control; assay type: cell-based; conditions: time 3.0 day
HL-60 [13] = assay: Induction of pro-differentiation of human HL-60 cells assessed as CD11b expression at 4 nM measured after 5 days by immunostaining-based flow cytometry (reference value: 10.08 to 10.33%); assay type: functional; conditions: time 5 day
Kasumi 1 = assay: Antiproliferative activity against human Kasumi 1 cells measured after 1 to 3 days by CCK-8 assay; assay type: functional, cell-based
[14] = molecular target: T4, Protein cereblon/Cyclin-dependent kinase 5 (Homo sapiens); assay: Protac activity at CRBN/CDK5 in human MV4-11 cells assessed as induction of CDK5 degradation at 2 to 32 nM measured after 3 days by Western blot analysis; assay type: cell-based; conditions: dose 2-32 nM, time 3.0 day
THP-1 = assay: Antiproliferative activity against human THP-1 cells measured after 1 to 3 days by CCK-8 assay; assay type: functional, cell-based
[15] = molecular target: T3, Protein cereblon/Cyclin-dependent kinase 4; assay: Protac activity at CRBN/CDK4 in human THP-1 cells assessed as induction of CDK4 degradation at 4 to 64 nM measured after 3 days by Western blot analysis; assay type: cell-based; conditions: dose 4-64 nM, time 3.0 day
[16] = molecular target: T1, Protein cereblon/Cyclin-dependent kinase 2; assay: Protac activity at CRBN/CDK2 in human HL-60 cells assessed as induction of CDK2 degradation measured after 3 days by Western blot analysis; assay type: cell-based
[17] = molecular target: T2, Protein cereblon/Cyclin-dependent kinase 6; assay: Protac activity at CRBN/CDK6 in human MV4-11 cells assessed as induction of CDK6 degradation at 2 to 32 nM measured after 3 days by Western blot analysis; assay type: cell-based; conditions: dose 2-32 nM, time 3.0 day
[18] = molecular target: T1, Protein cereblon/Cyclin-dependent kinase 2; assay: Protac activity at CRBN/CDK2 in human HL-60 cells assessed as induction of CDK2 degradation at 10 nM measured after 24 hrs in presence of proteasome inhibitor MG132 by Western blot analysis; assay type: cell-based
HL-60 [19] = assay: Antiproliferative activity against human HL-60 cells measured after 1 to 3 days by CCK-8 assay; assay type: functional, cell-based
[20] = molecular target: T1, Protein cereblon/Cyclin-dependent kinase 2; assay: Protac activity at CRBN/CDK2 in human HL-60 cells assessed as induction of CDK2 degradation at 10 nM measured after 24 hrs in presence of CRBN ligand thalidomide by Western blot analysis; assay type: cell-based
[21] = tested on: Protein cereblon/Receptor-type tyrosine-protein kinase FLT3 (Homo sapiens), P36888+Q96SW2 [UNDEFINED MUTATION]; assay: Protac activity at CRBN/FLT3-ITD mutant in human THP-1 cells assessed as induction of FLT3 degradation at 4 to 64 nM measured after 3 days by Western blot analysis; assay type: cell-based; conditions: dose 4-64 nM, time 3.0 day
[22] = molecular target: T1, Protein cereblon/Cyclin-dependent kinase 2; assay: Protac activity at CRBN/CDK2 in human HL-60 cells assessed as induction of CDK2 degradation measured after 24 hrs by Western blot analysis relative to control; assay type: cell-based
[23] = molecular target: T1, Protein cereblon/Cyclin-dependent kinase 2; assay: Protac activity at CRBN/CDK2 in human MV4-11 cells assessed as induction of CDK2 degradation at 2 to 32 nM measured after 3 days by Western blot analysis; assay type: cell-based; conditions: dose 2-32 nM, time 3.0 day
MV4-11 = assay: Antiproliferative activity against human MV4-11 cells measured after 1 to 3 days by CCK-8 assay; assay type: functional, cell-based
[24] = molecular target: Protein cereblon/Cyclin-dependent kinase 9 (Homo sapiens, UniProt P50750+Q96SW2); assay: Protac activity at CRBN/CDK9 in human THP-1 cells assessed as induction of CDK9 degradation at 4 to 64 nM measured after 3 days by Western blot analysis; assay type: cell-based; conditions: dose 4-64 nM, time 3.0 day
[25] = molecular target: Protein cereblon/Cyclin-dependent kinase 1 (Homo sapiens) (UniProt P06493+Q96SW2); assay: Protac activity at CRBN/CDK1 in human MV4-11 cells assessed as induction of CDK1 degradation at 2 to 32 nM measured after 3 days by Western blot analysis; assay type: cell-based; conditions: dose 2-32 nM, time 3.0 day
[26] = molecular target: T1, Protein cereblon/Cyclin-dependent kinase 2; assay: Protac activity at CRBN/CDK2 in human HL-60 cells assessed as induction of CDK2 degradation at 10 nM measured after 24 hrs in presence of NEDD8-activated E1 enzyme inhibitor MLN4924 by Western blot analysis; assay type: cell-based
[27] = molecular target: T3, Protein cereblon/Cyclin-dependent kinase 4; assay: Protac activity at CRBN/CDK4 in human Kasumi 1 cells assessed as induction of CDK4 degradation at 2 to 32 nM measured after 3 days by Western blot analysis; assay type: cell-based; conditions: dose 2-32 nM, time 3.0 day
[28] = molecular target: T1, Protein cereblon/Cyclin-dependent kinase 2; assay: Protac activity at CRBN/CDK2 in human HL-60 cells assessed as induction of CDK2 degradation by Western blot analysis relative to control; assay type: cell-based
HL-60 [29] = assay: Induction of pro-differentiation of human HL-60 cells assessed as CD11b expression at 1 nM measured after 5 days by immunostaining-based flow cytometry (reference value: 10.08 to 10.33%); assay type: functional; conditions: time 5 day

T3 sequence (P11802 2-303 limits assumed): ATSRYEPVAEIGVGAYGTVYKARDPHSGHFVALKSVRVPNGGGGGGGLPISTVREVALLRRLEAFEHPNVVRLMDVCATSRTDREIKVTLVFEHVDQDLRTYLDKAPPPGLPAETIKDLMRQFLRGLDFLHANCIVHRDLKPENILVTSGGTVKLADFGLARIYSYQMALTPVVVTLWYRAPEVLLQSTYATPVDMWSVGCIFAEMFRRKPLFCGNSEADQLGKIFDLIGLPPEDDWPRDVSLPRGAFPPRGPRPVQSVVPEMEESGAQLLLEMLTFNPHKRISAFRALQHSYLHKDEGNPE
T3 sequence (Q96SW2 whole entry partner): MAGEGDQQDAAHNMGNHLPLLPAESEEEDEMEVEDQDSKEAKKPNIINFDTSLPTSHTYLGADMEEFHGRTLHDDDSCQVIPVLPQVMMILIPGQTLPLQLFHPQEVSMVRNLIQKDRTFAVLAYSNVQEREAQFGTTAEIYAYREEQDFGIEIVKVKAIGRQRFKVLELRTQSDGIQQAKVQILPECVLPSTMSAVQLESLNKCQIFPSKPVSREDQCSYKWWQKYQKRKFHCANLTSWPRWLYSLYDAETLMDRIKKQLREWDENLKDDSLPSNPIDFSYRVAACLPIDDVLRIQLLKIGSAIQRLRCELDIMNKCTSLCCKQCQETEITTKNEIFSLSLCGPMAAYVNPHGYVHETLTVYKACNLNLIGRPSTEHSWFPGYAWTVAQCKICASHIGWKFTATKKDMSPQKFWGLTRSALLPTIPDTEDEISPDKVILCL
Sequence of Protein cereblon/Receptor-type tyrosine-protein kinase FLT3 (Homo sapiens), P36888+Q96SW2 [UNDEFINED MUTATION] (P36888 whole entry, looked up, change not shown): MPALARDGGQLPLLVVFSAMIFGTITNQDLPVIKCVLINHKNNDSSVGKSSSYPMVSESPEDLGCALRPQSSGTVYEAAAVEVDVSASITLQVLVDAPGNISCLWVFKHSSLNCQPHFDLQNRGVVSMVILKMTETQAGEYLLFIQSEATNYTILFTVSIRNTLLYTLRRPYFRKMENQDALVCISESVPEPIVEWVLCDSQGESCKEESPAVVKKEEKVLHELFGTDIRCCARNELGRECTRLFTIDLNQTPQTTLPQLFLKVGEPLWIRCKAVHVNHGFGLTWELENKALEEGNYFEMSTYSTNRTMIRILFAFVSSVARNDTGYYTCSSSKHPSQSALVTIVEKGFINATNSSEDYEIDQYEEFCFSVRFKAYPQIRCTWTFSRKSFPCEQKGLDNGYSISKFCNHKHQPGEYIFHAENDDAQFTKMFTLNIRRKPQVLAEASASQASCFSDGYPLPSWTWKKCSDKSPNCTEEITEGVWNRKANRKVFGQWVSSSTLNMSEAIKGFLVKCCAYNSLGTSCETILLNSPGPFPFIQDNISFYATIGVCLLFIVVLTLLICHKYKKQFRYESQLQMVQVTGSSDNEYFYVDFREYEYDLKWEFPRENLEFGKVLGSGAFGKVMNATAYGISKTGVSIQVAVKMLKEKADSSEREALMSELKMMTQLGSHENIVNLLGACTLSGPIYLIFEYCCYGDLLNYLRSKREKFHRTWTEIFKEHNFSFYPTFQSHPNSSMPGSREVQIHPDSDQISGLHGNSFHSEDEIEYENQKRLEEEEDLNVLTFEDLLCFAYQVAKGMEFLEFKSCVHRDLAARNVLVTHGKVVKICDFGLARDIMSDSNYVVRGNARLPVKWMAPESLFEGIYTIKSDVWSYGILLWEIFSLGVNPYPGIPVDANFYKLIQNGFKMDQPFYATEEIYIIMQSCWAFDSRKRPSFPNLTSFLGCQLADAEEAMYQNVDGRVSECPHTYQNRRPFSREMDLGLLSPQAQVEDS
Sequence of Protein cereblon/Receptor-type tyrosine-protein kinase FLT3 (Homo sapiens), P36888+Q96SW2 [UNDEFINED MUTATION] (Q96SW2 whole entry, looked up, change not shown): as the sequence (Q96SW2 whole entry partner) above
T2 sequence (Q00534 whole entry, looked up): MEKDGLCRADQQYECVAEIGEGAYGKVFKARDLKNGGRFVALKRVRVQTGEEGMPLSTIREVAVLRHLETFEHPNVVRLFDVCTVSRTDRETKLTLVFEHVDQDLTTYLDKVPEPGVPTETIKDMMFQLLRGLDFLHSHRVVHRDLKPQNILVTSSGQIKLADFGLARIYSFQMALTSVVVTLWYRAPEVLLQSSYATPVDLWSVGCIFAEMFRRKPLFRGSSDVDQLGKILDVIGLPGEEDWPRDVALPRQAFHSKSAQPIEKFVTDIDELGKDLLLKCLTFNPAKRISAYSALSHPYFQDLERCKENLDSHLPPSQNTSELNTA
T2 sequence (Q96SW2 whole entry, looked up): as the sequence (Q96SW2 whole entry partner) above
T4 sequence (Q00535 whole entry, looked up): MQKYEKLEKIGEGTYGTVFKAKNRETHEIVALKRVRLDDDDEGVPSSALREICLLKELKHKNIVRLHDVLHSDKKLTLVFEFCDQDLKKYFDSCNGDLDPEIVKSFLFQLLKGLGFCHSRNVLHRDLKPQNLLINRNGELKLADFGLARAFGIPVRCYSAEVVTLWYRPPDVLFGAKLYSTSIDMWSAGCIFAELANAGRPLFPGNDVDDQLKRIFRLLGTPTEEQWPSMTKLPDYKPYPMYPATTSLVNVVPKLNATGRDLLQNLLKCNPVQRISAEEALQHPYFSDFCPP
T4 sequence (Q96SW2 whole entry, looked up): as the sequence (Q96SW2 whole entry partner) above
Sequence of Protein cereblon/Cyclin-dependent kinase 1 (Homo sapiens) (P06493 whole entry, looked up): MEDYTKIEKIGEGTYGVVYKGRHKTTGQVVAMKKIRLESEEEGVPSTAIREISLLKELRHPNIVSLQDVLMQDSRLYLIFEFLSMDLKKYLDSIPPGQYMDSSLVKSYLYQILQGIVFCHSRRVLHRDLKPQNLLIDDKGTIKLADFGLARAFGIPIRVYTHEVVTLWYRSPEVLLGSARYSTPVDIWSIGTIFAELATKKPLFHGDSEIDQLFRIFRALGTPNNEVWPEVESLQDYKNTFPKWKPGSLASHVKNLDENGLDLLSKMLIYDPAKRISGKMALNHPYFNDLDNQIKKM
Sequence of Protein cereblon/Cyclin-dependent kinase 1 (Homo sapiens) (Q96SW2 whole entry, looked up): as the sequence (Q96SW2 whole entry partner) above
Sequence of Protein cereblon/Cyclin-dependent kinase 9 (P50750 whole entry, looked up): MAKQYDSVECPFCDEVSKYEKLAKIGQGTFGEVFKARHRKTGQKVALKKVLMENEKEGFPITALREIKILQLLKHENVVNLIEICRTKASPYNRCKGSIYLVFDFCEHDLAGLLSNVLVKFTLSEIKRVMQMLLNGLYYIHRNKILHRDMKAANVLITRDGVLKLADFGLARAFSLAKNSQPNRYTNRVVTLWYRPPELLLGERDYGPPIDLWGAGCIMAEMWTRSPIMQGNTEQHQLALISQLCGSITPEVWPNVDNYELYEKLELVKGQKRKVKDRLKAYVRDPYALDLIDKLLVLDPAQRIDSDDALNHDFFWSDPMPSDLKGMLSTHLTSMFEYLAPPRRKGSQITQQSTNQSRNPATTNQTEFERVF
Sequence of Protein cereblon/Cyclin-dependent kinase 9 (Q96SW2 whole entry, looked up): as the sequence (Q96SW2 whole entry partner) above

O=C1CCC(N2C(=O)c3ccc(N4CCC(CN5CCN(Cc6ccc(NC(=O)c7n[nH]cc7Nc7ncnc8[nH]ccc78)cc6)CC5)CC4)cc3C2=O)C(=O)N1 (stereo not drawn)
fold change (FC) (HL-60 [1]): 2.2
DC50 [2]: 18.7 nM
Activity (HL-60 [3]): 29.09%
Activity [4]: Active
fold change (FC) (HL-60 [5]): 5.7
Activity [6]: Active
Activity [7]: Active
DC50 [8]: 12.7 nM
IC50 (MOLM-13): 4.52 nM
Activity (HL-60 [9]): 23.74%
Activity [10]: inactive
Activity [11]: Active
Activity [12]: 77%
Activity (HL-60 [13]): 58.59%
IC50 (Kasumi 1): 3.99 nM
Activity [14]: inactive
IC50 (THP-1): 37.1 nM
Activity [15]: Active
DC50 [16]: 4.74 nM
Activity [17]: Active
Activity [18]: inactive
IC50 (HL-60 [19]): 10.5 nM
Activity [20]: inactive
Activity [21]: Active
Emax [22]: 86.8%
Activity [23]: Active
IC50 (MV4-11): 2.9 nM
Activity [24]: Active
Activity [25]: inactive
Activity [26]: inactive
Activity [27]: Active
Emax [28]: 81.9%
Activity (HL-60 [29]): 29.85%
